The supplement of paper PMC10307832

How the values were obtained:
Test in all cases: relative viability (nuclei count vs DMSO), 5 days (fraction); higher = more cells survive
[1] = compound: CN1C=C(C2=CC=CC=C21)/C=C\3/C4=C(C=CC=N4)NC3=O + Cc1nc(NC(=O)N2CCC[C@H]2C(N)=O)sc1-c1ccnc(C(C)(C)C(F)(F)F)c1 [Alpelisib] (partner 2 µM)
Method in brief: (§1)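 After 5 days of treatment, lung cancer cells in 1536-well plates were fixed and stained in a single step (final 0.05% Triton X-100, 1% formaldehyde, 1 ug/ml Hoechst) and their nuclei counted on 4× images. Treatment had been applied by pin tool the day after seeding as one drug alone or as a fixed anchor-drug dose with five library-drug doses (not always all listed) in √10 steps. Relative viability is the nuclei count of treated wells divided by that of vehicle wells, and values are medians of duplicate plates.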

[2] = compound: CN1C=C(C2=CC=CC=C21)/C=C\3/C4=C(C=CC=N4)NC3=O + Cc1cc(Nc2cc(N3CCN(C)CC3)nc(Sc3ccc(NC(=O)C4CC4)cc3)n2)n[nH]1 [Tozasertib] (partner 0.1 µM)
Method in brief: as §1

Trametinib + Foretinib = compound: CC(=O)Nc1cccc(-n2c(=O)n(C3CC3)c(=O)c3c(Nc4ccc(I)cc4F)n(C)c(=O)c(C)c32)c1 [Trametinib] + COc1cc2c(Oc3ccc(NC(=O)C4(C(=O)Nc5ccc(F)cc5)CC4)cc3F)ccnc2cc1OCCCN1CCOCC1 [Foretinib] (partner 0.25 µM)
Method in brief: as §1

Trametinib + Navitoclax = compound: CC(=O)Nc1cccc(-n2c(=O)n(C3CC3)c(=O)c3c(Nc4ccc(I)cc4F)n(C)c(=O)c(C)c32)c1 [Trametinib] + CC1(C)CCC(c2ccc(Cl)cc2)=C(CN2CCN(c3ccc(C(=O)NS(=O)(=O)c4ccc(N[C@H](CCN5CCOCC5)CSc5ccccc5)c(S(=O)(=O)C(F)(F)F)c4)cc3)CC2)C1 [Navitoclax] (partner 0.5 µM)
Method in brief: as §1

Row | Cell Line | relative viability ([1]; first compound 0.02 µM) | relative viability ([1]; first compound 0.06325 µM) | relative viability ([1]; first compound 0.6325 µM) | relative viability ([1]; first compound 2 µM) | relative viability ([2]; first compound 0.02 µM) | relative viability ([2]; first compound 0.06325 µM) | relative viability ([2]; first compound 0.6325 µM) | relative viability ([2]; first compound 2 µM) | relative viability (Trametinib + Foretinib; first compound 0.0025 µM) | relative viability (Trametinib + Foretinib; first compound 0.007906 µM) | relative viability (Trametinib + Foretinib; first compound 0.025 µM) | relative viability (Trametinib + Foretinib; first compound 0.07906 µM) | relative viability (Trametinib + Foretinib; first compound 0.25 µM) | relative viability ([1]; first compound 0.2 µM) | relative viability (Trametinib + Navitoclax; first compound 0.0025 µM) | relative viability (Trametinib + Navitoclax; first compound 0.007906 µM) | relative viability (Trametinib + Navitoclax; first compound 0.025 µM) | relative viability (Trametinib + Navitoclax; first compound 0.07906 µM) | relative viability (Trametinib + Navitoclax; first compound 0.25 µM) | relative viability ([2]; first compound 0.2 µM)
1 | NCI-H650 | 1.07 | 1.12 | 1.24 | 1.09 | 0.643 | 0.674 | 0.829 | 0.757 | 1.1 | 1.17 | 1.1 | 1.17 | 0.839 | – | – | – | – | – | – | –
2 | IA-LM | 0.972 | 0.549 | 0.736 | 0.681 | – | – | – | – | 1.09 | 0.687 | 0.351 | 0.169 | 0.0888 | 0.906 | 0.584 | 0.383 | 0.179 | 0.1 | 0.0292 | –
3 | A-427 | 1.08 | 1.02 | 1.08 | 1.13 | 0.203 | 0.207 | 0.201 | 0.166 | 1 | 0.747 | 0.619 | 0.517 | 0.448 | – | 0.989 | 0.799 | 0.489 | 0.545 | 0.296 | –
4 | NCI-H1792 | 0.536 | 0.723 | – | 0.581 | – | – | – | – | – | – | – | – | – | 0.608 | 0.646 | 0.596 | 0.417 | 0.392 | 0.332 | –
5 | ChaGo-K-1 | – | – | – | – | 0.194 | 0.221 | 0.214 | 0.201 | 0.805 | 0.908 | 0.839 | 0.839 | 0.687 | – | 1.07 | 0.803 | 1.08 | 0.508 | 0.556 | 0.212
6 | SW 900 | – | – | – | – | 0.468 | 0.531 | 0.452 | 0.389 | 0.79 | 0.669 | 0.708 | 0.698 | 0.499 | – | – | – | – | – | – | –
7 | NCI-H1623 | – | – | – | – | 0.384 | 0.431 | 0.384 | 0.497 | 0.782 | 0.591 | 0.532 | 0.437 | 0.727 | – | – | – | – | – | – | 0.358
8 | LCLC-103H | 1.05 | 1.02 | 0.941 | 0.924 | 0.313 | 0.506 | 0.511 | 0.536 | 0.745 | 0.637 | 0.537 | 0.621 | 0.429 | 0.937 | – | – | – | – | – | 0.475
9 | HCC-44 | 0.737 | 0.74 | 0.564 | 0.705 | 0.918 | 0.887 | 1.13 | 0.944 | – | – | – | – | – | 0.722 | 1.03 | 0.751 | 0.865 | 0.805 | 0.446 | –
10 | NCI-H358 | 0.824 | 0.776 | 0.833 | 0.791 | 0.0895 | 0.11 | 0.0977 | 0.117 | 0.49 | 0.302 | 0.264 | 0.18 | 0.166 | 0.752 | – | – | – | – | – | 0.109
